{"source": "patent US6875451B2", "about": "“Compositions and methods for the treatment of primary and metastatic neoplastic diseases using arsenic compounds” (PolaRx Biopharmaceuticals Inc., priority 1997, dated 2005)", "key": {"[1]": {"system": "IGROV1", "test": "SRB growth assay, 2 days exposure, ovarian cancer", "type": "cell-based", "experimental": "(§1) Arsenic trioxide (1 mg/ml, 10 mg/ampoule, manufactured by Taylor Pharmaceuticals, Decatur, Ill.) was tested at five concentrations each at 10-fold dilutions, i.e., 10^−5, 10^−6, 10^−7, 10^−8 and 10^−9 μg/ml.\n(§2) The in vitro tests were performed by incubating the test cells in the presence of the indicated concentration of arsenic trioxide under standard culture conditions for a designated period of time, which is followed by a sulforhodamine B (SRB) protein assay to estimate cell viability or growth. The cell lines are organized into subpanels according to the origin of the cell lines, e.g., leukemia, breast cancer, etc. A description of the cell lines and method of testing is described in Monk et al. (1997, Anticancer Drug Des. 12:533-41) and Weinstein et al., (1997, Science 275:343-9), which are incorporated herein in their entirety.\n(§3) The measurement of an effect is expressed in Percentage Growth (PG). The measured effect of the compound on a cell line is calculated according to one or the other of the following two expressions: If (Mean ODtest−Mean ODzero)≧0. then PG=100×(Mean ODtest−Mean ODzero)/(Mean ODctrl−Mean ODzero) If (Mean ODtest−Mean ODzero)<0. then PG=100×(Mean ODtest−Mean ODzero)/(Mean ODzero where: • Mean ODzero=the average of optical density measurements of SRB-derived color just before exposure of cells to the test compounds; • Mean ODtest=the average of optical density measurements of SRB-derived color after exposure of cells to the test compound for a designated period of time; and • Mean ODctrl=the average of optical density measurements of SRB-derived color after with no exposure of cells to the test compound for a designated period of time\n(§4) The first two columns describe the subpanel (e.g., leukemia) and cell line (e.g., CCRF-CEM) involved. The next two columns list the Mean ODzero and Mean ODctrl; the next five columns list the Mean ODtest for each of five different concentrations. Each concentration is expressed as the log10 (molar or μg/ml). The next five columns list the calculated PGs for each concentration. The response parameters GI50, TGI and LC50 are interpolated values representing the concentrations at which the PG is +50, 0, and −50, respectively. Sometimes these response parameters cannot be obtained by interpolation. If, for instance, all of the PGs in a given row exceed +50, then none of the three parameters can be obtained by interpolation. In such a case, the value given for each response parameter is the highest concentration tested and is preceded by a “>” sign. This practice is extended similarly to the other possible situations where a response parameter cannot be obtained by interpolation.\n(§5) In the first set, the cells from 56 different cancer cell lines were exposed to five concentrations of arsenic trioxide continuously for two days prior to performing the SRB assay. In the second set, the cells from 50 different cell lines (a subset of the first 56 cell lines, plus the renal cancer cell line 786-0) were exposed continuously for six days prior to the SRB assay."}, "[2]": {"system": "OVCAR-3", "test": "SRB growth assay, 2 days exposure, ovarian cancer", "type": "cell-based", "experimental": "as §1, §2, §3, §4, §5"}, "[3]": {"system": "OVCAR-5", "test": "SRB growth assay, 2 days exposure, ovarian cancer", "type": "cell-based", "experimental": "as §1, §2, §3, §4, §5"}, "[4]": {"system": "OVCAR-8", "test": "SRB growth assay, 2 days exposure, ovarian cancer", "type": "cell-based", "experimental": "as §1, §2, §3, §4, §5"}, "[5]": {"system": "SK-OV-3", "test": "SRB growth assay, 2 days exposure, ovarian cancer", "type": "cell-based", "experimental": "as §1, §2, §3, §4, §5"}, "[6]": {"system": "CCRF-CEM", "test": "SRB growth assay, 6 days exposure, leukemia", "type": "cell-based", "experimental": "as §1, §2, §3, §4, §5"}, "[7]": {"system": "K-562", "test": "SRB growth assay, 6 days exposure, leukemia", "type": "cell-based", "conditions": "K-562, 6 days", "experimental": "as §1, §2, §3, §4, §5"}, "[8]": {"system": "50 different cell lines", "test": "NCI cancer cell line panel, SRB assay, second set, 6 days exposure (whole panel, mean graph)", "type": "cell-based", "experimental": "as §1, §2\nThe measurement of an effect is expressed in Percentage Growth (PG). […]\nThe first two columns describe the subpanel (e.g., leukemia) and cell line (e.g., CCRF-CEM) involved. […] Each concentration is expressed as the log10 (molar or μg/ml). The next five columns list the calculated PGs for each concentration. […]"}, "[9]": {"system": "refractory APL", "conditions": "14 of 15 patients with refractory APL; intravenous 10 mg/day for 4-9 weeks; cited from earlier work"}, "[10]": {"conditions": "read-out: LC50 (the source's name)"}}, "data": [{"substance": "arsenic trioxide", "values": [{"measurement": "TGI", "setting": "[1]", "result": ">0.0126", "unit": "ng/mL"}, {"measurement": "Percent Growth", "setting": "[1]; log10 conc −4.9", "result": 18, "unit": "%"}, {"measurement": "Percent Growth", "setting": "[1]; log10 conc −5.9", "result": 102, "unit": "%"}, {"measurement": "Percent Growth", "setting": "[1]; log10 conc −6.9", "result": 105, "unit": "%"}, {"measurement": "Percent Growth", "setting": "[1]; log10 conc −7.9", "result": 118, "unit": "%"}, {"measurement": "Percent Growth", "setting": "[1]; log10 conc −8.9", "result": 111, "unit": "%"}, {"measurement": "TGI", "setting": "[2]", "result": ">0.0126", "unit": "ng/mL"}, {"measurement": "Percent Growth", "setting": "[2]; log10 conc −4.9", "result": 12, "unit": "%"}, {"measurement": "Percent Growth", "setting": "[2]; log10 conc −5.9", "result": 90, "unit": "%"}, {"measurement": "Percent Growth", "setting": "[2]; log10 conc −6.9", "result": 97, "unit": "%"}, {"measurement": "Percent Growth", "setting": "[2]; log10 conc −7.9", "result": 99, "unit": "%"}, {"measurement": "Percent Growth", "setting": "[2]; log10 conc −8.9", "result": 101, "unit": "%"}, {"measurement": "TGI", "setting": "[3]", "result": ">0.0126", "unit": "ng/mL"}, {"measurement": "Percent Growth", "setting": "[3]; log10 conc −4.9", "result": 34, "unit": "%"}, {"measurement": "Percent Growth", "setting": "[3]; log10 conc −5.9", "result": 97, "unit": "%"}, {"measurement": "Percent Growth", "setting": "[3]; log10 conc −6.9", "result": 93, "unit": "%"}, {"measurement": "Percent Growth", "setting": "[3]; log10 conc −7.9", "result": 103, "unit": "%"}, {"measurement": "Percent Growth", "setting": "[3]; log10 conc −8.9", "result": 105, "unit": "%"}, {"measurement": "TGI", "setting": "[4]", "result": ">0.0126", "unit": "ng/mL"}, {"measurement": "Percent Growth", "setting": "[4]; log10 conc −4.9", "result": 28, "unit": "%"}, {"measurement": "Percent Growth", "setting": "[4]; log10 conc −5.9", "result": 80, "unit": "%"}, {"measurement": "Percent Growth", "setting": "[4]; log10 conc −6.9", "result": 84, "unit": "%"}, {"measurement": "Percent Growth", "setting": "[4]; log10 conc −7.9", "result": 92, "unit": "%"}, {"measurement": "Percent Growth", "setting": "[4]; log10 conc −8.9", "result": 92, "unit": "%"}, {"measurement": "TGI", "setting": "[5]", "result": ">0.0126", "unit": "ng/mL"}, {"measurement": "Percent Growth", "setting": "[5]; log10 conc −4.9", "result": 40, "unit": "%"}, {"measurement": "Percent Growth", "setting": "[5]; log10 conc −5.9", "result": 100, "unit": "%"}, {"measurement": "Percent Growth", "setting": "[5]; log10 conc −6.9", "result": 98, "unit": "%"}, {"measurement": "Percent Growth", "setting": "[5]; log10 conc −7.9", "result": 97, "unit": "%"}, {"measurement": "Percent Growth", "setting": "[5]; log10 conc −8.9", "result": 94, "unit": "%"}, {"measurement": "TGI", "setting": "[6]", "result": ">1.26E−05"}, {"measurement": "Mean Optical Densities", "setting": "[6]; Log 10 Concentration −4.9", "result": 0.048}, {"measurement": "Percent Growth", "setting": "[6]; Log 10 Concentration −4.9", "result": 0, "unit": "%"}, {"measurement": "Mean Optical Densities", "setting": "[6]; Log 10 Concentration −5.9", "result": 0.320}, {"measurement": "Percent Growth", "setting": "[6]; Log 10 Concentration −5.9", "result": 8, "unit": "%"}, {"measurement": "Mean Optical Densities", "setting": "[6]; Log 10 Concentration −6.9", "result": 3.051}, {"measurement": "Percent Growth", "setting": "[6]; Log 10 Concentration −6.9", "result": 87, "unit": "%"}, {"measurement": "Mean Optical Densities", "setting": "[6]; Log 10 Concentration −7.9", "result": 3.592}, {"measurement": "Percent Growth", "setting": "[6]; Log 10 Concentration −7.9", "result": 102, "unit": "%"}, {"measurement": "Mean Optical Densities", "setting": "[6]; Log 10 Concentration −8.9", "result": 3.601}, {"measurement": "Percent Growth", "setting": "[6]; Log 10 Concentration −8.9", "result": 103, "unit": "%"}, {"measurement": "CC50", "setting": "[6]; [10]", "result": "> 12.6", "unit": "µM"}, {"measurement": "TGI", "setting": "[7]", "result": ">1.26E−05"}, {"measurement": "Mean Optical Densities", "setting": "[7]; Log 10 Concentration −4.9", "result": 0.096}, {"measurement": "Percent Growth", "setting": "[7]; Log 10 Concentration −4.9", "result": 2, "unit": "%"}, {"measurement": "Mean Optical Densities", "setting": "[7]; Log 10 Concentration −5.9", "result": 2.931}, {"measurement": "Percent Growth", "setting": "[7]; Log 10 Concentration −5.9", "result": 97, "unit": "%"}, {"measurement": "Mean Optical Densities", "setting": "[7]; Log 10 Concentration −6.9", "result": 3.360}, {"measurement": "Percent Growth", "setting": "[7]; Log 10 Concentration −6.9", "result": 112, "unit": "%"}, {"measurement": "Mean Optical Densities", "setting": "[7]; Log 10 Concentration −7.9", "result": 2.992}, {"measurement": "Percent Growth", "setting": "[7]; Log 10 Concentration −7.9", "result": 99, "unit": "%"}, {"measurement": "Mean Optical Densities", "setting": "[7]; Log 10 Concentration −8.9", "result": 3.042}, {"measurement": "Percent Growth", "setting": "[7]; Log 10 Concentration −8.9", "result": 101, "unit": "%"}, {"measurement": "CC50", "setting": "[7]; [10]", "result": "> 12.6", "unit": "µM"}, {"measurement": "reducing cell growth", "setting": "[8]; second set of tests, all cell lines tested", "result": "effective in reducing cell growth against all the cell lines tested"}, {"measurement": "sensitivity at the various principal response parameters", "setting": "[8]; several melanoma cell lines", "result": "especially sensitive"}, {"measurement": "clinical efficacy", "setting": "[9]", "result": "complete morphologic remission without associated bone marrow suppression"}]}]}
